Data published in ChEMBL document CHEMBL1158891, “Chemical and biological investigation of the fungus Pulveroboletus ravenelii” (J Nat Prod, 2003).
Values after ≈ are worked out from the molar mass of the structure shown.

Key:
[1] = target: T1, Prostaglandin G/H synthase 2 (Homo sapiens, UniProt P35354); assay: Inhibition of COX2
T1 sequence (P35354 whole entry): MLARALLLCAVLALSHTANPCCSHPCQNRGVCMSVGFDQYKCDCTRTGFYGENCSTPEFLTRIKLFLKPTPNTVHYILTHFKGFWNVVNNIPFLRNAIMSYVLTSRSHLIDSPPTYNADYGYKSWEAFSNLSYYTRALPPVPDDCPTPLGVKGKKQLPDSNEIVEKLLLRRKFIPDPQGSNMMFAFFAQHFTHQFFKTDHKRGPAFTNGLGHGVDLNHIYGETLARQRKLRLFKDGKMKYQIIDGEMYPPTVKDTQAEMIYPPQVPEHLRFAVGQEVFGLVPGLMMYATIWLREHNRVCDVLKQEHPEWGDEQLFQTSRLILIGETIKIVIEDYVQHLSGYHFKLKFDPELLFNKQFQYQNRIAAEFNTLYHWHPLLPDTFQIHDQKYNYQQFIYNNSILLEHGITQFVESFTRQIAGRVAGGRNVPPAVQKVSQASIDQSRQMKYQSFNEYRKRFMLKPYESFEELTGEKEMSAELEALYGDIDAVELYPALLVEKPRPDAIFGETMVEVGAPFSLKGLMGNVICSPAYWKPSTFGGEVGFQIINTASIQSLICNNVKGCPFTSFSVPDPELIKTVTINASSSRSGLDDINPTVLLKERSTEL

[2] = Inhibition of 7,12-dimethylbenz[a]anthracene-induced preneoplastic lesions in BALB/c mouse mammary gland culture after 1 to 10 days; type: functional, tissue-based
[3] = target: Prostaglandin G/H synthase 1 (Homo sapiens, UniProt P23219); assay: Inhibition of COX1
Staphylococcus aureus = assay: Antimicrobial activity against Staphylococcus aureus; type: functional, organism-based

Sequence of Prostaglandin G/H synthase 1 (P23219 whole entry): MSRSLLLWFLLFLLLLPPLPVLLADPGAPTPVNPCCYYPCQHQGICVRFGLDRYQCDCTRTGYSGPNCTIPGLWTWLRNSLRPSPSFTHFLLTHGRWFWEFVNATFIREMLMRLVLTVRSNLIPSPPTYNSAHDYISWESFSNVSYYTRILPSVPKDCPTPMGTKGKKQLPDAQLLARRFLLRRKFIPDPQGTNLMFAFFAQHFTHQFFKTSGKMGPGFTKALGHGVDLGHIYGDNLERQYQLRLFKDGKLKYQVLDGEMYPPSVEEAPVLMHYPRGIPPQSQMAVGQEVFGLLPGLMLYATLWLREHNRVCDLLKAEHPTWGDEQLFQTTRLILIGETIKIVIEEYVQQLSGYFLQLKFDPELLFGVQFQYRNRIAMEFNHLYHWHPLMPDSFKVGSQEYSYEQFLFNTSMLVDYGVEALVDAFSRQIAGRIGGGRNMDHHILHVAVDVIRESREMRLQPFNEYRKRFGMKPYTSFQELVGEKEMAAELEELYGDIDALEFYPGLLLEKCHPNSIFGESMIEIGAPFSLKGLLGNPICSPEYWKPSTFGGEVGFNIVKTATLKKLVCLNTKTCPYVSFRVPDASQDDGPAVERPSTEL

IC50 [1]	IC50 [2]	IC50 [3]	IC50 (Staphylococcus aureus)	SMILES
> 234 µM	0.8 µg/mL (≈ 1.88 µM)	> 234 µM		COC(=O)[C@@H](c1ccccc1)[C@H](C1=C(O)/C(=C/c2ccccc2)OC1=O)c1ccccc1 [PULVERAVEN B]
	6 µg/mL (≈ 14.1 µM)			COC(=O)[C@@H](c1ccccc1)[C@@H](C1=C(O)/C(=C/c2ccccc2)OC1=O)c1ccccc1 [PULVERAVEN A]
	> 10 µg/mL	676 µM	20 µg/mL (≈ 62.1 µM)	COC(=O)/C(=C1/OC(=O)C(c2ccccc2)=C1O)c1ccccc1 [VULPINIC ACID]
